Results: patent US4235911A, “Hydantoin derivatives” (Pfizer Inc., priority 1979, dated 1980)

Legend:
[1] = molecular target: T1, aldose reductase (Bos taurus, UniProt P16116); test: inhibition of isolated aldose reductase enzyme activity (procedure of S. Hayman et al. as modified by K. Sestanj et al.); assay type: biochemical, calf; conditions: for IC50: partially purified aldose reductase from calf lens, 50% reduction in enzyme activity, read-out: Concentration Level (IC50); for aldose reductase inhibitory activity: statement in words
T1 construct: partially purified aldose reductase enzyme obtained from calf lens; from tissue; host or cells: calf lens
Protocol: (§1) The activity of the compounds of the present invention, as agents for the control of chronic diabetic complications, is determined by their ability to successfully pass one or more of the following standard biological and/or pharmacological tests, viz., (1) measuring their ability to inhibit the enzyme activity of isolated aldose reductase; (2) measuring their ability to reduce or inhibit sorbitol accumulation in the sciatic nerve of acutely streptozotocinized (i.e., diabetic) rats; (3) measuring their ability to reverse already-elevated sorbitol levels in the sciatic nerve and lens of chronic streptozotocin-induced diabetic rats; (4) measuring their ability to prevent or inhibit galactitol formation in the lens of acutely galactosemic rats, and (5) measuring their ability to delay cataract formation and reduce the severity of lens opacities in chronic galactosemic rats. The following tetrahydroquinoline-derived spiro-hydantoin compounds of Examples 1-4, respectively, were tested for their ability to reduce or inhibit aldose reductase enzyme activity via the procedure of S. Hayman et al., as described in the Journal of Biological Chemistry, Vol. 240, p. 877 (1965) and as modified by K. Sestanj et al. in U.S. Pat. No. 3,821,383. In every case, the substrate employed was partially purified aldose reductase enzyme obtained from calf lens.

[2] = test system: sorbitol levels in the lens and sciatic nerve of diabetic subjects; test: lowering of sorbitol levels in the lens and nerve of diabetic subjects; assay type: in vivo; conditions: statement in words
Protocol: as §1, with “rats.” for “rats. The following tetrahydroquinoline-derived spiro-hydantoin compounds of Examples 1-4, respectively, were tested for their ability to reduce or inhibit aldose reductase enzyme activity via the procedure of S. Hayman et al., as described in the Journal of Biological Chemistry, Vol. 240, p. 877 (1965) and as modified by K. Sestanj et al. in U.S. Pat. No. 3,821,383. In every case, the substrate employed was partially purified aldose reductase enzyme obtained from calf lens.”

[3] = test system: galactitol levels in the lens of galactosemic subjects; test: lowering of galactitol levels in the lens of galactosemic subjects; assay type: in vivo; conditions: statement in words
Protocol: as §1, with “rats.” for “rats. The following tetrahydroquinoline-derived spiro-hydantoin compounds of Examples 1-4, respectively, were tested for their ability to reduce or inhibit aldose reductase enzyme activity via the procedure of S. Hayman et al., as described in the Journal of Biological Chemistry, Vol. 240, p. 877 (1965) and as modified by K. Sestanj et al. in U.S. Pat. No. 3,821,383. In every case, the substrate employed was partially purified aldose reductase enzyme obtained from calf lens.”

[4] = test system: formation of sorbitol levels in diabetic rats; test: inhibition of formation of sorbitol levels in diabetic rats, oral; assay type: in vivo, rat; conditions: 5.0 mg./kg. to 25 mg./kg.
Source text: (§2) As previously indicated, the tetrahydroquinoline-derived spiro-hydantoin compounds of this invention are all readily adapted to therapeutic use as aldose reductase inhibitors for the control of chronic diabetic complications, in view of their ability to reduce lens sorbitol levels in diabetic subjects to a statistically significant degree. […] The other compounds of this invention also cause similar results. Furthermore, all the herein described compounds of this invention can be administered by either the oral or parenteral routes of administration, for the present purposes at hand, without causing any significant untoward pharmacological side reactions to occur in the subject to whom they are so administered. In general, these compounds are ordinarily administered in dosages ranging from about 0.25 mg. to about 25 mg. per kg. of body weight per day, although variations will necessarily occur depending upon the weight and condition of the subject being treated and the particular route of administration chosen.

[5] = toxic side effects in diabetic rats, oral; assay type: in vivo, rat; conditions: 5.0 mg./kg. to 25 mg./kg.
Source text: as §2

Structure (SMILES)	IC50 [1] [µM]	aldose reductase inhibitory activity [1]	lowering sorbitol levels in the lens and sciatic nerve of diabetic subjects [2]	lowering galactitol levels in the lens of galactosemic subjects [3]	control (i.e., inhibit) the formation of sorbitol levels in diabetic rats [4]	toxic side effects [5]
CN1CCC2(NC(=O)NC2=O)c2ccccc21.Cl (stereo not drawn) [Product of Example 1, 1'-methyl-1',2',3',4'-tetrahydro-spiro-[imidazolidine-4,4'-quinoline]-2,5-dione hydrochloride]	50	highly potent	extremely effective	extremely effective	–	–
CN1CCC2(NC(=O)NC2=O)c2cccnc21 (stereo not drawn) [Product of Example 2, 1'-methyl-1',2',3',4'-tetrahydro-spiro-[imidazolidine-4,4'-pyrido(2,3-b)pyridine]-2,5-dione]	10	highly potent	extremely effective	extremely effective	–	–
O=C1NC(=O)C2(CCNc3cc(Cl)ccc32)N1 (stereo not drawn) [Product of Example 3, 7'-chloro-1',2',3',4'-tetrahydro-spiro-[imidazolidine-4,4'-quinoline]-2,5-dione]	10	highly potent	extremely effective	extremely effective	–	–
O=C1NC(=O)C2(CCNc3ccc(Cl)cc32)N1 (stereo not drawn) [Product of Example 4, 6'-chloro-1',2',3',4'-tetrahydro-spiro-[imidazolidine-4,4'-quinoline]-2,5-dione]	1	highly potent	extremely effective	extremely effective	to a significantly high degree	without showing any substantial signs of toxic side effects
